The first series is described as follows: all-hydrocarbon stapling by ring-closing olefin metathesis between S5/S5 (i,i+4) or R8/S5 (i,i+7) olefinic residues, Grubbs 1st-generation catalyst (10 mM in DCE per text; 6 mM per schemes), 2 x 2 h, on Rink Amide MBHA resin. The note with it: the molecule shown is the open-chain precursor, 21-membered ring, 1,2-dichloroethane, 35.0 °C, 60 steps.
Compound “final: H-I-K-L-S-P-[S5]-T-K-D-[S5]-L-K-K-V-L-K-G-[S5]-I-K-G-[S5]-I-A-V-A-K-M-V-NH2; 1st RCM on Fmoc-[S5]-I-K-G-[S5]-I-A-V-A-K-M-V-resin, 2nd RCM on Fmoc-[S5]-T-K-D-[S5]-L-K-K-V-L-K-G-[S5]-I-K-G-[S5]-I-A-V-A-K-M-V-resin (C-terminal S5 pair already stapled)” showed a ring closure, overall yield of 5.43%.

The series is the same for the next values; noted with them: the molecule shown is the open-chain precursor, 21-membered ring, 1,2-dichloroethane, 35.0 °C, 4.0 h, 60 steps.
`C=CCCC[C@](C)(NC(=O)CNC(=O)[C@H](CCCCNC(=O)OC(C)(C)C)NC(=O)[C@@H](NC(=O)[C@](C)(CCCC=C)NC(=O)CNC(=O)[C@H](CCCCNC(=O)OC(C)(C)C)NC(=O)[C@H](CC(C)C)NC(=O)[C@@H](NC(=O)[C@H](CCCCNC(=O)OC(C)(C)C)NC(=O)[C@H](CCCCNC(=O)OC(C)(C)C)NC(=O)[C@H](CC(C)C)NC(=O)[C@H](CC(=O)NC(c1ccccc1)(c1ccccc1)c1ccccc1)NC(=O)[C@H](CC(=O)OC(C)(C)C)NC(=O)[C@H](CCCCNC(=O)OC(C)(C)C)NC(=O)[C@@H](NC(=O)[C@H](CCC(=O)OC(C)(C)C)NC(=O)[C@@H]1CCCN1C(=O)[C@H](COC(C)(C)C)NC(=O)[C@H](CC(C)C)NC(=O)[C@H](CCCCNC(=O)OC(C)(C)C)NC(=O)[C@@H](NC(=O)OCC1c2ccccc2-c2ccccc21)[C@@H](C)CC)[C@@H](C)OC(C)(C)C)C(C)C)[C@@H](C)CC)C(=O)N[C@H](C(=O)N[C@@H](C)C(=O)N[C@H](C(=O)N[C@@H](C)C(=O)N[C@@H](CCCCNC(=O)OC(C)(C)C)C(=O)N[C@@H](CCSC)C(=O)N[C@H](C(N)=O)C(C)C)C(C)C)[C@@H](C)CC` displayed a ring closure, overall yield of 19.9%.
Same read-out and setting: next, `C=CCCC[C@](C)(NC(=O)[C@H](CCCCNC(=O)OC(C)(C)C)NC(=O)[C@H](CC(C)C)NC(=O)[C@@H](NC(=O)[C@H](CCCCNC(=O)OC(C)(C)C)NC(=O)[C@H](CCCCNC(=O)OC(C)(C)C)NC(=O)[C@H](CC(C)C)NC(=O)[C@H](CC(=O)NC(c1ccccc1)(c1ccccc1)c1ccccc1)NC(=O)[C@H](CC(=O)OC(C)(C)C)NC(=O)[C@H](CCCCNC(=O)OC(C)(C)C)NC(=O)[C@@H](NC(=O)[C@H](CCC(=O)OC(C)(C)C)NC(=O)[C@@H]1CCCN1C(=O)[C@H](COC(C)(C)C)NC(=O)[C@H](CC(C)C)NC(=O)[C@H](CCCCNC(=O)OC(C)(C)C)NC(=O)[C@@H](NC(=O)OCC1c2ccccc2-c2ccccc21)[C@@H](C)CC)[C@@H](C)OC(C)(C)C)C(C)C)C(=O)N[C@@H](C)C(=O)N[C@H](C(=O)N[C@@H](CCCCNC(=O)OC(C)(C)C)C(=O)N[C@@](C)(CCCC=C)C(=O)N[C@@H](C)C(=O)N[C@H](C(=O)N[C@@H](C)C(=O)N[C@H](C(=O)N[C@@H](C)C(=O)N[C@@H](CCCCNC(=O)OC(C)(C)C)C(=O)N[C@@H](CCSC)C(=O)N[C@H](C(N)=O)C(C)C)C(C)C)[C@@H](C)CC)[C@@H](C)CC`: 18.5%; `C=CCCC[C@](C)(NC(=O)[C@@H](NC(=O)[C@H](C)NC(=O)CNC(=O)[C@H](CCCCNC(=O)OC(C)(C)C)NC(=O)[C@H](CC(C)C)NC(=O)[C@@H](NC(=O)[C@H](CCCCNC(=O)OC(C)(C)C)NC(=O)[C@H](CCCCNC(=O)OC(C)(C)C)NC(=O)[C@H](CC(C)C)NC(=O)[C@H](CC(=O)NC(c1ccccc1)(c1ccccc1)c1ccccc1)NC(=O)[C@H](CC(=O)OC(C)(C)C)NC(=O)[C@H](CCCCNC(=O)OC(C)(C)C)NC(=O)[C@@H](NC(=O)[C@H](CCC(=O)OC(C)(C)C)NC(=O)[C@@H]1CCCN1C(=O)[C@H](COC(C)(C)C)NC(=O)[C@H](CC(C)C)NC(=O)[C@H](CCCCNC(=O)OC(C)(C)C)NC(=O)[C@@H](NC(=O)OCC1c2ccccc2-c2ccccc21)[C@@H](C)CC)[C@@H](C)OC(C)(C)C)C(C)C)[C@@H](C)CC)C(=O)NCC(=O)N[C@@H](C)C(=O)N[C@H](C(=O)N[C@@](C)(CCCC=C)C(=O)N[C@H](C(=O)N[C@@H](C)C(=O)N[C@@H](CCCCNC(=O)OC(C)(C)C)C(=O)N[C@@H](CCSC)C(=O)N[C@H](C(N)=O)C(C)C)C(C)C)[C@@H](C)CC`: 14.1%; `C=CCCC[C@](C)(NC(=O)[C@H](CC(=O)OC(C)(C)C)NC(=O)[C@H](CCCCNC(=O)OC(C)(C)C)NC(=O)[C@@H](NC(=O)[C@](C)(CCCC=C)NC(=O)[C@@H]1CCCN1C(=O)[C@H](COC(C)(C)C)NC(=O)[C@H](CC(C)C)NC(=O)[C@H](CCCCNC(=O)OC(C)(C)C)NC(=O)[C@@H](NC(=O)OCC1c2ccccc2-c2ccccc21)[C@@H](C)CC)[C@@H](C)OC(C)(C)C)C(=O)N[C@@H](CC(C)C)C(=O)N[C@@H](CCCCNC(=O)OC(C)(C)C)C(=O)N[C@@H](CCCCNC(=O)OC(C)(C)C)C(=O)N[C@H](C(=O)N[C@@H](CC(C)C)C(=O)N[C@@H](CCCCNC(=O)OC(C)(C)C)C(=O)NCC(=O)N[C@@H](C)C(=O)N[C@H](C(=O)N[C@@H](CCCCNC(=O)OC(C)(C)C)C(=O)NCC(=O)N[C@@H](C)C(=O)N[C@H](C(=O)N[C@@H](C)C(=O)N[C@H](C(=O)N[C@@H](C)C(=O)N[C@@H](CCCCNC(=O)OC(C)(C)C)C(=O)N[C@@H](CCSC)C(=O)N[C@H](C(N)=O)C(C)C)C(C)C)[C@@H](C)CC)[C@@H](C)CC)C(C)C`: 6.43%.
Still for that read-out and setting: to `C=CCCC[C@](C)(NC(=O)CNC(=O)[C@H](CCCCNC(=O)OC(C)(C)C)NC(=O)[C@@H](NC(=O)[C@H](C)NC(=O)CNC(=O)[C@H](CCCCNC(=O)OC(C)(C)C)NC(=O)[C@H](CC(C)C)NC(=O)[C@@H](NC(=O)[C@H](CCCCNC(=O)OC(C)(C)C)NC(=O)[C@H](CCCCNC(=O)OC(C)(C)C)NC(=O)[C@H](CC(C)C)NC(=O)[C@H](CC(=O)NC(c1ccccc1)(c1ccccc1)c1ccccc1)NC(=O)[C@H](CC(=O)OC(C)(C)C)NC(=O)[C@H](CCCCNC(=O)OC(C)(C)C)NC(=O)[C@@H](NC(=O)[C@H](CCC(=O)OC(C)(C)C)NC(=O)[C@@H]1CCCN1C(=O)[C@H](COC(C)(C)C)NC(=O)[C@H](CC(C)C)NC(=O)[C@H](CCCCNC(=O)OC(C)(C)C)NC(=O)[C@@H](NC(=O)OCC1c2ccccc2-c2ccccc21)[C@@H](C)CC)[C@@H](C)OC(C)(C)C)C(C)C)[C@@H](C)CC)C(=O)N[C@H](C(=O)N[C@@H](C)C(=O)N[C@H](C(=O)N[C@@](C)(CCCC=C)C(=O)N[C@@H](CCCCNC(=O)OC(C)(C)C)C(=O)N[C@@H](CCSC)C(=O)N[C@H](C(N)=O)C(C)C)C(C)C)[C@@H](C)CC` belongs 13.1%; to `C=CCCC[C@](C)(NC(=O)[C@H](CCCCNC(=O)OC(C)(C)C)NC(=O)[C@@H](NC(=O)[C@H](CCC(=O)OC(C)(C)C)NC(=O)[C@](C)(CCCC=C)NC(=O)[C@H](COC(C)(C)C)NC(=O)[C@H](CC(C)C)NC(=O)[C@H](CCCCNC(=O)OC(C)(C)C)NC(=O)[C@@H](NC(=O)OCC1c2ccccc2-c2ccccc21)[C@@H](C)CC)[C@@H](C)OC(C)(C)C)C(=O)N[C@@H](CC(=O)NC(c1ccccc1)(c1ccccc1)c1ccccc1)C(=O)N[C@@H](CC(C)C)C(=O)N[C@@H](CCCCNC(=O)OC(C)(C)C)C(=O)N[C@@H](CCCCNC(=O)OC(C)(C)C)C(=O)N[C@H](C(=O)N[C@@H](CC(C)C)C(=O)N[C@@H](CCCCNC(=O)OC(C)(C)C)C(=O)NCC(=O)N[C@@H](C)C(=O)N[C@H](C(=O)N[C@@H](CCCCNC(=O)OC(C)(C)C)C(=O)NCC(=O)N[C@@H](C)C(=O)N[C@H](C(=O)N[C@@H](C)C(=O)N[C@H](C(=O)N[C@@H](C)C(=O)N[C@@H](CCCCNC(=O)OC(C)(C)C)C(=O)N[C@@H](CCSC)C(=O)N[C@H](C(N)=O)C(C)C)C(C)C)[C@@H](C)CC)[C@@H](C)CC)C(C)C`, 11.4%.

Still in this series, the particulars now being: the molecule shown is the open-chain precursor, 33-membered ring, 1,2-dichloroethane, 35.0 °C, 4.0 h, 60 steps.
Turning to `C=CCCCCCC[C@@](C)(NC(=O)[C@H](CC(=O)OC(C)(C)C)NC(=O)[C@H](CCCCNC(=O)OC(C)(C)C)NC(=O)[C@@H](NC(=O)[C@H](CCC(=O)OC(C)(C)C)NC(=O)[C@@H]1CCCN1C(=O)[C@H](COC(C)(C)C)NC(=O)[C@H](CC(C)C)NC(=O)[C@H](CCCCNC(=O)OC(C)(C)C)NC(=O)[C@@H](NC(=O)OCC1c2ccccc2-c2ccccc21)[C@@H](C)CC)[C@@H](C)OC(C)(C)C)C(=O)N[C@@H](CC(C)C)C(=O)N[C@@H](CCCCNC(=O)OC(C)(C)C)C(=O)N[C@@H](CCCCNC(=O)OC(C)(C)C)C(=O)N[C@H](C(=O)N[C@@H](CC(C)C)C(=O)N[C@@H](CCCCNC(=O)OC(C)(C)C)C(=O)N[C@@](C)(CCCC=C)C(=O)N[C@@H](C)C(=O)N[C@H](C(=O)N[C@@H](CCCCNC(=O)OC(C)(C)C)C(=O)NCC(=O)N[C@@H](C)C(=O)N[C@H](C(=O)N[C@@H](C)C(=O)N[C@H](C(=O)N[C@@H](C)C(=O)N[C@@H](CCCCNC(=O)OC(C)(C)C)C(=O)N[C@@H](CCSC)C(=O)N[C@H](C(N)=O)C(C)C)C(C)C)[C@@H](C)CC)[C@@H](C)CC)C(C)C`, the ring closure, overall yield was found to be 6.51%.
Still for that read-out and setting: next, `C=CCCCCCC[C@@](C)(NC(=O)[C@@H](NC(=O)[C@H](C)NC(=O)CNC(=O)[C@H](CCCCNC(=O)OC(C)(C)C)NC(=O)[C@H](CC(C)C)NC(=O)[C@@H](NC(=O)[C@H](CCCCNC(=O)OC(C)(C)C)NC(=O)[C@H](CCCCNC(=O)OC(C)(C)C)NC(=O)[C@H](CC(C)C)NC(=O)[C@H](CC(=O)NC(c1ccccc1)(c1ccccc1)c1ccccc1)NC(=O)[C@H](CC(=O)OC(C)(C)C)NC(=O)[C@H](CCCCNC(=O)OC(C)(C)C)NC(=O)[C@@H](NC(=O)[C@H](CCC(=O)OC(C)(C)C)NC(=O)[C@@H]1CCCN1C(=O)[C@H](COC(C)(C)C)NC(=O)[C@H](CC(C)C)NC(=O)[C@H](CCCCNC(=O)OC(C)(C)C)NC(=O)[C@@H](NC(=O)OCC1c2ccccc2-c2ccccc21)[C@@H](C)CC)[C@@H](C)OC(C)(C)C)C(C)C)[C@@H](C)CC)C(=O)NCC(=O)N[C@@H](C)C(=O)N[C@H](C(=O)N[C@@H](C)C(=O)N[C@H](C(=O)N[C@@H](C)C(=O)N[C@@](C)(CCCC=C)C(=O)N[C@@H](CCSC)C(=O)N[C@H](C(N)=O)C(C)C)C(C)C)[C@@H](C)CC`: 7.25%.

Values taken from publication PMC9081086, “Stapling strategy enables improvement of antitumor activity and proteolytic stability of host-defense peptide hymenochirin-1B” (RSC Advances, 2018).
